Measurements reported in patent US9776992B2, “1-oxo-1,2-dihydroisoquinolin-7-yl-(5-substituted-thiophen-2-yl)-sulfonamide compounds, formulations containing those compounds, and their use as AICARFT inhibitors in the treatment of cancers” (Eli Lilly and Company, priority 2014, dated 2017).

Assays:
[1] = tested on: AICARFT; assay: Pharmacodynamic response in beagle dogs (plasma AICAr); type: in vivo, beagle dog; settings: for Mean Plasma AICAr: beagle dogs, orally, time of collection post dose 8; for in vivo inhibition of AICARFT (in words): dogs, summary of Table 20
Description: The in vivo effects of AICARFT inhibition on the circulating concentration of AICAr is determined by liquid chromatography-mass spectrometry (LC-MS). Standard curves containing AICAr at concentrations of 1 ng/mL-2000 ng/mL are prepared in 40 mM ammonium acetate, pH 4. Plasma samples (75 μL) or standards (75 μL) are combined with 300 μL of an internal standard solution containing 13C5-AICAr (20 ng/mL) and formic acid (1%) in ACN. The samples are vortex mixed for 5 minutes and passed through a Phenomenex Phree 96-well phospholipid removal SPE plate. The eluents are collected in a 96-well plate and dried under heated nitrogen at 50° C. Each sample is reconstituted in 50 μL of 40 mM ammonium acetate, pH 4. The plates are sealed and vortexed for 5 minutes prior to analysis. The LC-MS method utilized a Shimadzu Prominence 20A HPLC system connected to an AB Sciex 5500™ or an AB Sciex 6500™ triple quadrupole mass spectrometer running Analyst® software. Extracted samples are separated using two Thermo Hypercarb™ Javelin guard columns (2.1×20 mm, 5 μm) connected in series with an injection volume of 15 μL and a flow rate of 1 mL/minute. Mobile phase A is a 95:5 mixture of 50 mM ammonium formate, pH 4 and ACN. Mobile phase B is a 70:30 mixture of ACN and MeOH spiked with 0.3% formic acid and 2% concentrated ammonium hydroxide solution (v/v). For mouse plasma samples the following gradient is used: 0 minutes, 0% B; 0.25 minutes, 0% B; 2.00 minutes, 25% B; 2.01 minutes, 95% B; 3.50 minutes, 95% B; 3.51 minutes, 0% B; 4.50 minutes, stop. For dog plasma samples the following gradient is used to remove endogenous interferences: 0 minutes, 0% B; 0.25 minutes, 0% B; 5.99 minutes, 20% B; 6.00 minutes, 95% B; 8.00 minutes, 95% B; 8.01 minutes, 0% B; 10.00 minutes, stop. The mass spectrometer is operated in positive ion TurboIonSpray® multiple reaction monitoring mode with a source temperature of 700° C. The precursor and fragment ions for each analyte are: AICAr (259→127) and 13C5-AICAr (264→127). Calibration curves are constructed by plotting analyte concentrations vs. analyte/internal standard peak area ratios and performing a linear fit of the data using a 1/concentration weighting with AB Sciex MultiQuant™ 2.1 software.
Beagle dogs, non-human primates and human are low serum folate species, whereas rodents are high serum folate (C P Leamon et al. (2008) JPET 327:918-925). The pharmacodynamics response in dogs treated with an AICARFT inhibitor will be more representative of the expected pharmacodynamics response in patients treated with an AICARFT inhibitor.
Animals are returned to the colony for re-use after completion of the experiment.

[2] = tested on: panel of cell lines; assay: In vitro proliferation assay, cell line panel (CellTiter-Glo); type: cell-based; settings: standard media conditions; summary of Table 17
Description: (§1) Cells are grown using the cell banks recommended culture conditions on the date of sample acquisition. Prepare complete medium adding appropriate horse serum (ex. Invitrogen, Cat. No. 16050130) or FBS (ex. Invitrogen, Cat. No. 10099-141 or Hyclone Cat. No. CH30160.03) and additives.
(§2) For attached cell lines, remove and discard culture medium using a vacuum pump. […] Add 3.0 mL of Trypsin-EDTA solution to flask and observe cells under an inverted microscope until cell layer is dispersed. Add 8.0 mL of complete growth medium and aspirate cells by gently pipetting.
(§3) For suspension cell lines, transfer the cell suspension to a centrifuge tube and centrifuge at 800-1000 rpm for 3-5 minutes. Discard the supernatant using a vacuum pump. Add the appropriate volume of complete medium. Suspend the cell pellet by gently pipetting. Count the cell numbers and adjust cells to the appropriate seeding density. […]
(§4) Determine the concentrations to be tested and dilute the compounds to 200×final concentration in low folate media. […] Incubate plates at 37° C. for approximately 2 doubling times as determined for each cell line. […] Paste the clear bottom with white back seal and record luminescence with Flexstation3 (Molecular Devices). The settings should be: Luminescence, integration time 500 ms. […]

[3] = tested on: colorectal carcinoma HCT-116; assay: In vitro proliferation assay, HCT-116; type: cell-based; settings: Homo sapiens; HCT-116, standard media conditions
Description: as §1, §2, §3, §4

[4] = biological target: AICARFT (Homo sapiens, UniProt P31939); assay: AICARFT in vivo target inhibition (IVTI) assay, tumor xenografts (ZMP); parameters: from tissue; host or cells: HCT-116 and NCI-H460 tumour xenografts in female athymic nude mice; species or system mouse
Description: In vivo studies are performed using female athymic nude mice (Harlan) with a bodyweight of 23-28 g at first measurement. Upon receipt and throughout the study, the animals are housed 5 animals per cage in appropriately sized solid-bottom cages with contact bedding. The animal room is maintained on a 12-hour light/dark cycle. Animals are acclimated for 14 days prior to implantation of the NCI-H460 or HCT-116 cells on low folate diet (Teklad 130451) ad libitum and autoclaved tap water is provided ad libitum. The HCT-116 and NCI-H460 cell line are obtained from American Type Culture Collection (ATCC) and is cultured following ATCC instructions. Cells used for implantation are harvested during log phase growth and suspended in serum-free media. The suspended cells are then diluted 1:1 with BD Matrigel Matrix (ref 354234). Cells are injected in the right flank with 5.0E+06 cells (0.2 mL cell/Matrigel suspension). Tumors are monitored beginning day 8 post implant. Animals are redistributed into groups with 5-6 animals per group utilizing proprietary randomization software when average tumor volume reaches 200 mm^3. Groups 1-12 are maintained on a low folate diet (Teklad 130451) and folic acid (Sigma F8798 Lot #SLBH0909V) administration at doses listed in the Table 19 began 28 hours prior to dose initiation and 4 hours prior to each dose. Folic acid is formulated weekly in PBS and dosed via oral gavage at 0.2 mL. Groups 13-16 are placed on standard chow (Teklad 2920X) at randomization. The compound is formulated weekly in 20% HPBCD in Phosphate buffer pH 8 with one molar equivalent NaOH added. The formulated compound is administered at the doses and schedules indicated in Table 19 by oral gavage (0.2 mL). The vehicle is also given QD as the control arm of the study. Tumor volume and body weight are measured 2× a week. Tumor volume is determined by caliper measurements (mm) and using the formula for an ellipsoid sphere: tumor volume (mm^3)=length×width^2/2, where length and width refer to the larger and smaller perpendicular dimensions collected at each measurement. The animal behavior and animal health are monitored daily during dosing period.
The in vivo effects of AICARFT inhibition on the concentrations of pathway-related analytes are determined by liquid chromatography-mass spectrometry (LC-MS) analysis of tumor xenografts. Tumor xenograft samples on dry ice are weighed on an analytical balance, transferred to 2 mL Eppendorf Safe-Lock Tube™, and placed on dry ice. An internal standard solution containing 13C5-ZMP (1000 ng/mL), 13C5-AICAr (500 ng/mL), ascorbic acid (0.1%), and formic acid (0.1%) in MeOH/DCM (80:20) is prepared and stored at 20° C. For every mg of tissue in the sample tube, 10 L of internal standard solution is added. Standard curves containing ZMP, dUMP, AICAr at concentrations of 7.6-50,000 ng/mL are prepared separately in the internal standard solution.
One 5 mm steel bead (Qiagen) is added to each sample tube and the tubes are placed on wet ice for 15 minutes. Samples are homogenized on a Qiagen TissueLyser II for 5 minutes at 15 Hz, and then centrifuged on an Eppendorf 5430R microcentrifuge for 10 minutes at 13,000 rpm and 4° C. Aliquots of each supernatant (200 μL) are removed and placed into a deep 96-well plate. Aliquots (200 μL) of each standard curve solution are also placed in a deep 96-well plate. A Beckman Biomek FX liquid handler added DCM (600 μL) and 0.1% ascorbic acid solution (200 μL) to each well. The plate is sealed, vortexed for 5 minutes, and centrifuged for 5 minutes at 4,000 rpm and 4° C. on an Eppendorf 5810R centrifuge. Aliquots (75 μL) of the top layer are transferred to a clean 96-well plate, and an additional 75 μL of 40 mM ammonium acetate, pH 4 is added to each well. The plates are sealed prior to analysis. The LC-MS method utilized a Shimadzu Prominence 20A HPLC system connected to an AB Sciex 5500™ or an AB Sciex 6500™ triple quadrupole mass spectrometer running Analyst® software.

[5] = tested on: panel of 46 cancer cell lines; assay: Low folate in vitro proliferation assay, cancer cell line panel (Alamar Blue); settings: media conditions with folate levels similar to human plasma; summary of Table 18
Description: Supplement 500 mL Gibco folate free RPMI media (Gibco #27016-021) with 1 M Hepes (5 mL), 100 mM Na pyruvate (5 mL) and 0.5 g/mL glucose (2.5 mL) to match high folate ATCC RPMI media (ATCC #30-2001). To make complete media, both regular and folate free RPMI medias are supplemented with 10% FBS. The addition of FBS to folate free media adds low levels of folate and is now considered to be low folate media.
Transfer cells growing in high folate RPMI media (ATCC #30-2001)+10% FBS (Hyclone #SH30070.03) to low folate RPMI media and folate starve for 7 days. Wash cells grown in high folate media with PBS, trypsinize, and resuspend in low folate media. Grow cells in low folate media for 7 days making sure to seed tissue culture flasks at a density that will not exceed 80% confluence after 7 days. Wash cells in PBS, trypsinize, and resuspend in low folate media and count cells. Seed 96 well poly D lysine plate (Corning #354640) at 3000 cells/well in 100 μl low folate media. Allow cells to attach overnight. Prepare 10 mM DMSO stocks of compounds to be tested in proliferation assay. Determine concentrations to be tested and dilute compounds to 2× final concentration in low folate media. Calculate % DMSO of this solution and use this value as diluent. […] Read plates on the Envision plate reader (Perkin Elmer), or other fluorescent plate reader, with excitation at 570 nm and emission at 585 nm. […]

[6] = tested on: large cell lung cancer NCI-H460; assay: In vitro proliferation assay, NCI-H460; type: cell-based; settings: Homo sapiens; NCI-H460, standard media conditions
Description: as §1, §2, §3, §4

[7] = tested on: colorectal carcinoma HCT-116; assay: Low folate in vitro proliferation assay, HCT-116; type: cell-based; settings: Homo sapiens, 168 h; HCT-116, low folate media, 7 days
Source text: Allow cells to attach overnight. […] Final concentration of compounds will be 1×. […] Dose cells with compounds of interest for 7 days. […] Determine % inhibition for each sample (see Table 18).

AICARFT (Homo sapiens, UniProt P31939), sequence (P31939 whole entry): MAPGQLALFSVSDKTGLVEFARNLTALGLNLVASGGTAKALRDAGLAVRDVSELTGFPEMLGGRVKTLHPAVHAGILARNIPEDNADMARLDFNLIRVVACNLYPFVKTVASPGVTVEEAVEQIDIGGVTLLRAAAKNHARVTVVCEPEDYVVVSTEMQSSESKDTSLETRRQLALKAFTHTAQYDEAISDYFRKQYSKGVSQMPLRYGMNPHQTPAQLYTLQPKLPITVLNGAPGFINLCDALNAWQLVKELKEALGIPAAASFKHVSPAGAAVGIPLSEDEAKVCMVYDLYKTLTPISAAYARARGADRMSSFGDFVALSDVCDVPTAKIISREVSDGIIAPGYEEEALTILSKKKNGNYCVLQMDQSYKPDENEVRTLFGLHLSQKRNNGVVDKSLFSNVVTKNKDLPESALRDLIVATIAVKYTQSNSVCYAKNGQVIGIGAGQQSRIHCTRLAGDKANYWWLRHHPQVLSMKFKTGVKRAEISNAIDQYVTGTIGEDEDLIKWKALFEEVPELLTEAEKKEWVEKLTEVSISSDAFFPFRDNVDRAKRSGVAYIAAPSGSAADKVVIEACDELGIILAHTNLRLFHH

Row | Structure (SMILES) | Mean Plasma AICAr ([1]; 10 mg/kg QD) [nM] | Mean Plasma AICAr ([1]; 30 mg/kg QD) [nM] | Mean Plasma AICAr ([1]; 100 mg/kg QD) [nM] | Mean Plasma AICAr ([1]; 300 mg/kg QD) [nM] | in vivo inhibition of AICARFT (in words) [1] | inhibition of proliferation of cancer cells (in words) [2] | IC50 [3] [µM] | Mean tumor ZMP ([4]; HCT-116 xenograft, Group 6, low folate diet, folic acid 0.75 mg/kg (QD × 15, orally), 10 mg/kg QD × 14, orally, Day 23) [µM] | Mean tumor ZMP ([4]; HCT-116 xenograft, Group 7, low folate diet, folic acid 0.75 mg/kg (QD × 15, orally), 30 mg/kg QD × 14, orally, Day 23) [µM] | Mean tumor ZMP ([4]; HCT-116 xenograft, Group 14, standard chow, no folic acid, 10 mg/kg QD × 14, orally, Day 23) [µM] | Mean tumor ZMP ([4]; HCT-116 xenograft, Group 15, standard chow, no folic acid, 30 mg/kg QD × 14, orally, Day 23) [µM] | Mean tumor ZMP ([4]; NCI-H460 xenograft, Group 14, standard chow, no folic acid, 10 mg/kg QD × 13, orally, Day 20) [µM] | Mean tumor ZMP ([4]; NCI-H460 xenograft, Group 15, standard chow, no folic acid, 30 mg/kg QD × 13, orally, Day 20) [µM] | inhibition of proliferation of cancer cells (in words) [5] | IC50 [6] [nM] | IC50 [7] [nM]
1 | O=c1[nH]ccc2cc(F)c(NS(=O)(=O)c3ccc(N4C[C@@H](O)[C@@H](F)C4)s3)cc12 (single isomer, unassigned) [Example 33] | 98 | 213 | 726 | 1150 | demonstrate in vivo inhibition of AICARFT |  |  |  |  |  |  |  |  |  |  | 
2 | O=c1[nH]ccc2cc(F)c(NS(=O)(=O)c3ccc(N4CC[C@@H](O)C4)s3)cc12 [Example 1, N-(6-Fluoro-1-oxo-1,2-dihydroisoquinolin-7-yl)-5-[(3R)-3-hydroxypyrrolidin-1-yl]thiophene-2-sulfonamide] | 138 | 254 | 652 | 931 | demonstrate in vivo inhibition of AICARFT | inhibit proliferation of cancer cells | 8.1 | 20 | 35 | 7.0 | 26 | 3.7 | 66 | inhibits proliferation of cancer cells | 610 | 3
3 | O=c1[nH]ccc2cc(F)c(NS(=O)(=O)c3ccc(N4C[C@@H](O)C(F)(F)C4)s3)cc12 [Example 41, 5-[(4R)-3,3-difluoro-4-hydroxypyrrolidin-1-yl]-N-(6-fluoro-1-oxo-1,2-dihydroisoquinolin-7-yl)thiophene-2-sulfonamide] | 158 | 362 | 1534 | 1373 | demonstrate in vivo inhibition of AICARFT | inhibit proliferation of cancer cells | 10.8 |  |  |  |  |  |  |  | 1880 | 
